Values of other authors as cited in patent US20220280449A1, “CURCUMINOID COMPOSITIONS” (priority 2018, published 2022).

System: Caco-2 cells

predicted absorption in humans (from correlation of Caco-2 Papp with human absorption): 0-20% | apparent permeability coefficient (Papp value) (in vitro human intestinal cell model (Caco-2)): 0.1 ×10⁻⁶ cm/s
Compound: COc1cc(/C=C/C(=O)CC(=O)/C=C/c2ccc(O)c(OC)c2)ccc1O [curcumin]
